For data set [1], the target named is T1, ATP synthase subunit e (ATP5I) (Homo sapiens, UniProt P56385).
T1 construct: gene ATP5ME; full-length human ATP5I, N-terminal 6x-His-tagged, expressed in E. coli (mainly oligomers, mostly decamers)
T1 sequence (P56385 1-69): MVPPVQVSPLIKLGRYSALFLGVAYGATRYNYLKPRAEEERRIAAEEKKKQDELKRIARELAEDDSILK
Kind of data set: SPR, BFB immobilized on streptavidin chip, recombinant ATP5I as analyte, steady-state fit; supported by streptavidin pull-down and immunoblot. It is filed as binding. For orientation: In SPR one partner is held on a chip, and binding of the other changes the refractive index at the surface.

Data set [2] deals with the molecule itself. The experiment in a line: SEC; gel filtration of purified rATP5I (legend: Superose 12 10/300 GL for the profile, Superose 6 10/300 GL for the calibration with thyroglobulin, γ-globulin, myoglobin and vitamin B12). (Size exclusion chromatography separates by hydrodynamic size, large species first.)

As a reminder, the Kd is the constant that tells how readily two partners part at equilibrium. For `N=C(N)NC(=N)NCCCCCCNC(=O)CCCCC1SCC2NC(=O)NC21` (centres unmarked) [compound 3, BFB], the equilibrium dissociation constant (Kd) in data set [1] was approximately 11.1 µM.

B1: N-terminal 6x-His-tagged ATP5I (ATP synthase subunit e), recombinant (natural protein, human, UniProt P56385 1-69, looked up)
chain: MVPPVQVSPLIKLGRYSALFLGVAYGATRYNYLKPRAEEERRIAAEEKKKQDELKRIARELAEDDSILK
notes: The vector is pET-TEV; The protein was extracted under denaturing conditions and brought back into native buffer on the column; also called rATP5I; recombinant ATP5I; not shown: His6, N-terminal, kept
A word on the stoichiometry N: it is the number of molecules, sites or subunits per partner or assembly. Turning to B1, in data set [2], the “stoichiometry N” value turned out to be 10.
